Key:
Assay in all cases: KINOMEscan competition binding
Details in all cases: compound 0.1 µM
TLK2 (human) = TLK2 (human) (UniProt Q86UE8)
MAP3K5 (human) = MAP3K5 (human) (UniProt Q99683)
RPS6KB1 (human) = RPS6KB1 (human) (UniProt P23443)
TGFBR2 (human) = TGFBR2 (human) (UniProt P37173)
BMPR1B (human) = BMPR1B (human) (UniProt O00238)
MAP3K6 (human) = MAP3K6 (human) (UniProt O95382)
CSNK2A2 (human) = CSNK2A2 (human) (UniProt P19784)
ICK (human) = ICK (human) (UniProt Q9UPZ9)
ADCK3 (human) = ADCK3 (human) (UniProt Q8NI60)
SRPK3 (human) = SRPK3 (human) (UniProt Q9UPE1)
PI4KB (human) = PI4KB (human) (UniProt Q9UBF8)
PI4KB (human), sequence (Q9UBF8 whole entry, looked up): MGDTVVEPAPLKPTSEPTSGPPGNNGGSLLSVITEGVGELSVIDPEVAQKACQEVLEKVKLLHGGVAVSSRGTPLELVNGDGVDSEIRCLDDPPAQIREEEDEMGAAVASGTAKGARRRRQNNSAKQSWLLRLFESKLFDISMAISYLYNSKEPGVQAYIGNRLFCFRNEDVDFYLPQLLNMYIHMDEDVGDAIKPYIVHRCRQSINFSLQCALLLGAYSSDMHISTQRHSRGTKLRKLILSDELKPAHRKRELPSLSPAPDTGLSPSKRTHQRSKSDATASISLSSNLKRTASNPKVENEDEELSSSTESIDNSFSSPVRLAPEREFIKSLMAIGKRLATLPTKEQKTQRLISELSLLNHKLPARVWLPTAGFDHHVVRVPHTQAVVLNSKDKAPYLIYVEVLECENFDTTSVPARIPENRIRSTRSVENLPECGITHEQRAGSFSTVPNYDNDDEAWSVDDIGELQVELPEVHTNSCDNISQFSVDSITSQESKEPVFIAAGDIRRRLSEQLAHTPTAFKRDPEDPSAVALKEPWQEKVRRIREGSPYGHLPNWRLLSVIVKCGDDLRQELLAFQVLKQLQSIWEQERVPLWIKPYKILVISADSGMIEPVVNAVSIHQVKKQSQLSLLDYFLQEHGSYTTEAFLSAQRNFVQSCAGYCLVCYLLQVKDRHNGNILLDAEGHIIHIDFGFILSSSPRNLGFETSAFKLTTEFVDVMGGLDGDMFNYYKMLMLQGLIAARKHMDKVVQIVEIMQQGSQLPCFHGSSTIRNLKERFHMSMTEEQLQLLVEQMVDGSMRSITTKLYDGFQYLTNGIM

MINK1 (human) = MINK1 (human) (UniProt Q8N4C8)
ACVR2B (human) = ACVR2B (human) (UniProt Q13705)
RIOK2 (human) = RIOK2 (human) (UniProt Q9BVS4)
CAMK1G (human) = CAMK1G (human) (UniProt Q96NX5)
MAP4K3 (human) = MAP4K3 (human) (UniProt Q8IVH8)
EPHB3 (human) = EPHB3 (human) (UniProt P54753)
CSNK1A1 (human) = CSNK1A1 (human) (UniProt P48729)
GRK4 (human) = GRK4 (human) (UniProt P32298)
HIPK1 (human) = HIPK1 (human) (UniProt Q86Z02)
ANKK1 (human) = ANKK1 (human) (UniProt Q8NFD2)
BMX (human) = BMX (human) (UniProt P51813)
BMX (human), sequence (P51813 whole entry, looked up): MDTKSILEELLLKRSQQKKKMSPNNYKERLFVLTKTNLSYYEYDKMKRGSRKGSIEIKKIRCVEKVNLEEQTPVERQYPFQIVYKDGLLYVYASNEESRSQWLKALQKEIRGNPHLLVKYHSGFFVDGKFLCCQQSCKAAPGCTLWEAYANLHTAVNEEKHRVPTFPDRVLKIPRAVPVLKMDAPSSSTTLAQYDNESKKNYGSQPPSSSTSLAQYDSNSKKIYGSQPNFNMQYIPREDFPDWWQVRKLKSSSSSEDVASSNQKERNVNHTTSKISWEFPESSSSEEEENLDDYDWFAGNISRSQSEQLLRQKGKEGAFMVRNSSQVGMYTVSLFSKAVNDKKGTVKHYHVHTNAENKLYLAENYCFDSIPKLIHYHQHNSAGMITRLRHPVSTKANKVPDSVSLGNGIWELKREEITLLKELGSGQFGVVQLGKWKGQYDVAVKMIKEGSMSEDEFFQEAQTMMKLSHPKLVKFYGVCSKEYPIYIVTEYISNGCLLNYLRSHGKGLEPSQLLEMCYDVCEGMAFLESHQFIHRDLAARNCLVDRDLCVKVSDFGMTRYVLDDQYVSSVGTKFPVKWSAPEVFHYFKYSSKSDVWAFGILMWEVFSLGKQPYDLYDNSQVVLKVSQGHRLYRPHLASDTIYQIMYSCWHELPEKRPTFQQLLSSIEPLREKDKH

ROS1 (human) = ROS1 (human) (UniProt P08922)
CHUK (human) = CHUK (human) (UniProt O15111)
AKT2 (human) = AKT2 (human) (UniProt P31751)
PIM3 (human) = PIM3 (human) (UniProt Q86V86)
PHKG2 (human) = PHKG2 (human) (UniProt P15735)
PRKCD (human) = PRKCD (human) (UniProt Q05655)
PIK3CD (human) = PIK3CD (human) (UniProt O00329)
PIK3CD (human), sequence (O00329 whole entry, looked up): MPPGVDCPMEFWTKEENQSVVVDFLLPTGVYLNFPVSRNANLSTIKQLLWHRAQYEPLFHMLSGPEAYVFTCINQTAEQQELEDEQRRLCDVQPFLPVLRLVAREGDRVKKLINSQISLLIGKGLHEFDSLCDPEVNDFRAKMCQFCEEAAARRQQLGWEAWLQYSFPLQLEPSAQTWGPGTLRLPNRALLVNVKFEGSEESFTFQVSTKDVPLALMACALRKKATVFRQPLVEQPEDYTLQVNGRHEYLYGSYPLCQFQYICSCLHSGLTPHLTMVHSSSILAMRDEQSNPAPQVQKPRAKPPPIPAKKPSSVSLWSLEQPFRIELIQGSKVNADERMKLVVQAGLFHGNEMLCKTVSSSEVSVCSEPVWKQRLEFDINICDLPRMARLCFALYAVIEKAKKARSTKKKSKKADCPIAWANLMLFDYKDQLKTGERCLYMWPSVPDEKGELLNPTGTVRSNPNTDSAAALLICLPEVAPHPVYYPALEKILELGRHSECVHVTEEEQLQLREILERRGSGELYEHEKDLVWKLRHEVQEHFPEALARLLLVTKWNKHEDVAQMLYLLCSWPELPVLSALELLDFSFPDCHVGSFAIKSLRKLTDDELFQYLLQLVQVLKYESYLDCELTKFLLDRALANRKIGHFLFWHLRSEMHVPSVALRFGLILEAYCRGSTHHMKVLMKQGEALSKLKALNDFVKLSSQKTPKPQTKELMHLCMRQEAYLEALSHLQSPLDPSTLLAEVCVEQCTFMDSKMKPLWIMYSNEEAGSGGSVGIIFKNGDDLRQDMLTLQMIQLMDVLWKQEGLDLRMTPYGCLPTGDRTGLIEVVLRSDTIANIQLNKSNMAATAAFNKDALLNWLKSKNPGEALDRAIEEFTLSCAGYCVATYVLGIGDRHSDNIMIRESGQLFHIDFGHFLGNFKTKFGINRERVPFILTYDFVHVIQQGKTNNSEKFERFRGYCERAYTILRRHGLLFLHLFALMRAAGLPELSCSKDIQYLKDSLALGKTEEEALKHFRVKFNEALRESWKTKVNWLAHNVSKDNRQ

CAMKK1 (human) = CAMKK1 (human) (UniProt Q8N5S9)
TNK2 (human) = TNK2 (human) (UniProt Q07912)
[1] = tested on: PIK3CA (human), P42336 [H1047L]
[2] = tested on: LRRK2 (human), Q5S007 [G2019S]
EIF2AK2 (human) = EIF2AK2 (human) (UniProt P19525)
EIF2AK2 (human), sequence (P19525 whole entry, looked up): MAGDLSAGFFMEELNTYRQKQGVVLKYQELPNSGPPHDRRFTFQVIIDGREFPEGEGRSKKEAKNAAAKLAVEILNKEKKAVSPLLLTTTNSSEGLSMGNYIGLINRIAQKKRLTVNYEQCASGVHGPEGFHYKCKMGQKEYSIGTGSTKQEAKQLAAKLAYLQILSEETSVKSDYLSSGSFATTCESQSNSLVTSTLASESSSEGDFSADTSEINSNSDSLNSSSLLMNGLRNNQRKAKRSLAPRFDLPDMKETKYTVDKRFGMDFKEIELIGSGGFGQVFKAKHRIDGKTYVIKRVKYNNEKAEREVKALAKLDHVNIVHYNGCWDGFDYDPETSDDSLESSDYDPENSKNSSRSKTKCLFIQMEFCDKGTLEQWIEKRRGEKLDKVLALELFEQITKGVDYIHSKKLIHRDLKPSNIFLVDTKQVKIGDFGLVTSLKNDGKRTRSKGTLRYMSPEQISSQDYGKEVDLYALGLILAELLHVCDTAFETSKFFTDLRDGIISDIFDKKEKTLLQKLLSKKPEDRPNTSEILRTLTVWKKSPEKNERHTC

DCLK1 (human) = DCLK1 (human) (UniProt O15075)
STK32B (human) = STK32B (human) (UniProt Q9NY57)
STK32B (human), sequence (Q9NY57 whole entry, looked up): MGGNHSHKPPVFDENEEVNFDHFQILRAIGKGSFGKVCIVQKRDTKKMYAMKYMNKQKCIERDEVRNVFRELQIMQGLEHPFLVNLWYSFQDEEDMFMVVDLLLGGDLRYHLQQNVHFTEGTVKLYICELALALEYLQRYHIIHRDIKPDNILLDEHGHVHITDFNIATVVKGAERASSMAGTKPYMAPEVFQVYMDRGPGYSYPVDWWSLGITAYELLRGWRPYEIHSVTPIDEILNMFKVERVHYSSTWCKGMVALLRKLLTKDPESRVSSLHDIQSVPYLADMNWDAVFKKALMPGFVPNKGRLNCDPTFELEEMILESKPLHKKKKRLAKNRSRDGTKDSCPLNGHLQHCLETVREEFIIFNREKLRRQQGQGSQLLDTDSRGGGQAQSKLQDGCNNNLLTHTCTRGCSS

HUNK (human) = HUNK (human) (UniProt P57058)
CLK2 (human) = CLK2 (human) (UniProt P49760)
CLK2 (human), sequence (P49760 whole entry, looked up): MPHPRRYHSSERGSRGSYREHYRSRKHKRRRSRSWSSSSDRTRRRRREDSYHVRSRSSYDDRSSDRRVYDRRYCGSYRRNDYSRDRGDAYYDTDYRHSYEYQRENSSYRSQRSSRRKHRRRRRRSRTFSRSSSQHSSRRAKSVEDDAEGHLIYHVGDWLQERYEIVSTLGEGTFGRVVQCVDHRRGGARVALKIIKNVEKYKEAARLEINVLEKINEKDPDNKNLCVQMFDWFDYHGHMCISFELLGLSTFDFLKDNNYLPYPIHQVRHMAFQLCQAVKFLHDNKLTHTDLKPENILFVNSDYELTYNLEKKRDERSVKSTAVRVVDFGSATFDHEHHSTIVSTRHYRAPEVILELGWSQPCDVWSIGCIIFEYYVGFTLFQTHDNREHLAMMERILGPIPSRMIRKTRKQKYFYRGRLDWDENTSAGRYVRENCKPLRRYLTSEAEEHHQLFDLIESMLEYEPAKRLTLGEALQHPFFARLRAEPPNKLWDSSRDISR

MAP3K3 (human) = MAP3K3 (human) (UniProt Q99759)
LRRK2 (human) = LRRK2 (human) (UniProt Q5S007)

TGFBR2 (human), sequence (P37173 whole entry, looked up): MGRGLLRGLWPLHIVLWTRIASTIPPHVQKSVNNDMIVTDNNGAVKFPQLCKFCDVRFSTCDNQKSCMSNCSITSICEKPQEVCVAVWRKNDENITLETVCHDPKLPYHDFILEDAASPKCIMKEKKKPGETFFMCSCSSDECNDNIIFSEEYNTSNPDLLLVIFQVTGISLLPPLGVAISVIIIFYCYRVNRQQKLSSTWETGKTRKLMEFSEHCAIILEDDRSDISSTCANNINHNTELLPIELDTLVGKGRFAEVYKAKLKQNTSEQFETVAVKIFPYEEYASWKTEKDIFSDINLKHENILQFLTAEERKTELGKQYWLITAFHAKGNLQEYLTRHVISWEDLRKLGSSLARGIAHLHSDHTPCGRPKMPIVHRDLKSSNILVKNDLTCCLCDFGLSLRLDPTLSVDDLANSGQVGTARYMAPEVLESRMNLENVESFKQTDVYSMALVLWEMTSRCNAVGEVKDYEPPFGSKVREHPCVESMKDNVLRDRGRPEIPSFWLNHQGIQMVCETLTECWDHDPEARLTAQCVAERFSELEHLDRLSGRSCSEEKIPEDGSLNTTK
CSNK2A2 (human), sequence (P19784 whole entry, looked up): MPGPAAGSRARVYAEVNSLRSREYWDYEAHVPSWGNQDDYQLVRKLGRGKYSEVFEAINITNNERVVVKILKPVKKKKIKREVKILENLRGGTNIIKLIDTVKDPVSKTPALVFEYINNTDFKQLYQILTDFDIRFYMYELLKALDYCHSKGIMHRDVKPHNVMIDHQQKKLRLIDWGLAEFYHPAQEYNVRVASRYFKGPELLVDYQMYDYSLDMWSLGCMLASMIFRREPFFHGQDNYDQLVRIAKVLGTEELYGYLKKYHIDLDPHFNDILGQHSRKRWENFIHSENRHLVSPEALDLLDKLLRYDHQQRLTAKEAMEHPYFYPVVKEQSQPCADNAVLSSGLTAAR

CCc1ccc(C(=O)Nc2cc(CN3CCN(C)CC3)cc(C(F)(F)F)c2)cc1C#Cc1cnc2ccnn2c1
kinase still bound, per cent of control (TLK2 (human)): 100% | kinase still bound, per cent of control (MAP3K5 (human)): 100% | kinase still bound, per cent of control (RPS6KB1 (human)): 100% | kinase still bound, per cent of control (TGFBR2 (human)): 100% | kinase still bound, per cent of control (BMPR1B (human)): 100% | kinase still bound, per cent of control (MAP3K6 (human)): 100% | kinase still bound, per cent of control (CSNK2A2 (human)): 100% | kinase still bound, per cent of control (ICK (human)): 100% | kinase still bound, per cent of control (ADCK3 (human)): 90% | kinase still bound, per cent of control (SRPK3 (human)): 92% | kinase still bound, per cent of control (PI4KB (human)): 100% | kinase still bound, per cent of control (MINK1 (human)): 100% | kinase still bound, per cent of control (ACVR2B (human)): 100% | kinase still bound, per cent of control (RIOK2 (human)): 100% | kinase still bound, per cent of control (CAMK1G (human)): 71% | kinase still bound, per cent of control (MAP4K3 (human)): 100% | kinase still bound, per cent of control (EPHB3 (human)): 94% | kinase still bound, per cent of control (CSNK1A1 (human)): 100% | kinase still bound, per cent of control (GRK4 (human)): 97% | kinase still bound, per cent of control (HIPK1 (human)): 100% | kinase still bound, per cent of control (ANKK1 (human)): 100% | kinase still bound, per cent of control (BMX (human)): 100% | kinase still bound, per cent of control (ROS1 (human)): 78% | kinase still bound, per cent of control (CHUK (human)): 100% | kinase still bound, per cent of control (AKT2 (human)): 83% | kinase still bound, per cent of control (PIM3 (human)): 77% | kinase still bound, per cent of control (PHKG2 (human)): 66% | kinase still bound, per cent of control (PRKCD (human)): 100% | kinase still bound, per cent of control (PIK3CD (human)): 74% | kinase still bound, per cent of control (CAMKK1 (human)): 69% | kinase still bound, per cent of control (TNK2 (human)): 96% | kinase still bound, per cent of control [1]: 100% | kinase still bound, per cent of control [2]: 94% | kinase still bound, per cent of control (EIF2AK2 (human)): 83% | kinase still bound, per cent of control (DCLK1 (human)): 100% | kinase still bound, per cent of control (STK32B (human)): 100% | kinase still bound, per cent of control (HUNK (human)): 100% | kinase still bound, per cent of control (CLK2 (human)): 85% | kinase still bound, per cent of control (MAP3K3 (human)): 100% | kinase still bound, per cent of control (LRRK2 (human)): 86%

From the kinase profiling compilation of Christmann-Franck et al. (2016)
